Experimental data as given in ChEMBL document CHEMBL5390277, “Development of N-Terminally Modified Variants of the CXCR4-Antagonistic Peptide EPI-X4 for Enhanced Plasma Stability” (J Med Chem, 2023).
pIC50: −log10 of the molar value. Square brackets hold non-standard residues; d marks the D form. Peptide text beside a SMILES is read from it.

Experiments:
[1] = molecular target: T1, C-X-C chemokine receptor type 4 (Homo sapiens, UniProt P61073); test: Displacement of 12G5 mAb from CXCR4 in human SUP-T1 cells incubated for 2 hrs by flow cytometry analysis; format: cell-based
T1 sequence (P61073 whole entry): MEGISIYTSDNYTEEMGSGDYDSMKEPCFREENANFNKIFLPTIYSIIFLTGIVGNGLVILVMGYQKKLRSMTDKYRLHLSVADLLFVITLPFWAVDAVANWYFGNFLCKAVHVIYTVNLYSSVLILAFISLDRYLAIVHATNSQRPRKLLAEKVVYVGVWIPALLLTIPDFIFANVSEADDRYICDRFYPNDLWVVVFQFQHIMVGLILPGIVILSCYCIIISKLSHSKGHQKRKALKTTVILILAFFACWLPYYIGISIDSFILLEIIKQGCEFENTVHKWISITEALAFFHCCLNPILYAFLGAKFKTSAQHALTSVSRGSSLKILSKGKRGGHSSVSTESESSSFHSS

[2] = system: Human immunodeficiency virus 1; test: Antiviral activity against HIV-1 NL4-3 infected in human TZM-bl cells assessed as inhibition of viral replication preincubated for 15 mins followed by viral infection and measured after 4320 mins by beta-gal screening assay; format: functional, organism-based; conditions: Human immunodeficiency virus 1, NL4-3, TZM
[3] = molecular target: T1, C-X-C chemokine receptor type 4; test: Antagonist activity at CXCR4 in human SUP-T1 cells assessed as inhibition of CXCL12-induced ERK phosphorylation preincubated with 15 mins followed by CXCL12 stimulation and measured after 12 mins by flow cytometry analysis; format: functional, cell-based
[4] = system: SUP-T1; test: Inhibition of cell migration in human SUP-T1 cells assessed as inhibition of CXCL12 mediated cell migration incubated for 4 hrs in presence of chemoattractant, CXCL12 by Transwell based CellTiter-Glo-chemotaxis assay; format: functional
[5] = Toxicity in Zebrafish embryo incubated for 24 hrs by microscopic analysis; design: species or system Danio rerio; conditions: in vivo
[6] = molecular target: T1, C-X-C chemokine receptor type 4; test: Displacement of 12G5 antibody from CXCR4 in human SUP-T1 cells in presence of human plasma media incubated for 2 hrs by flow cytometry based competitive analysis; format: cell-based
[7] = molecular target: T1, C-X-C chemokine receptor type 4; test: Displacement of 12G5 antibody from CXCR4 in human SUP-T1 cells in presence of human plasma media incubated for 8 hrs by flow cytometry based competitive analysis; format: cell-based
[8] = molecular target: T1, C-X-C chemokine receptor type 4; test: Displacement of 12G5 antibody from CXCR4 in human SUP-T1 cells as fold increase in apparent IC50 in presence of human plasma media by flow cytometry based competitive analysis; format: cell-based; conditions: filed as antagonist
[9] = molecular target: T1, C-X-C chemokine receptor type 4; test: Displacement of 12G5 antibody from CXCR4 in human SUP-T1 cells assessed as stability of the compound by measuring remaining activity in presence of human plasma media at 20 uM by flow cytometry based competitive analysis relative to control; format: cell-based
[10] = Stability in C57BL/6 mouse plasma assessed as compound remaining at 3.5 mg/kg,iv administration and measured after 30 mins in presence of fluorescent labeled CXCR4 antibody and CXCR4 expressing human SUP-T1 cells by antibody-competition based flow cytometry assay; format: ADME, organism-based; conditions: in vivo, 0.5 h
[11] = molecular target: T1, C-X-C chemokine receptor type 4; test: Antagonist activity at CXCR4 (unknown origin) expressed in human HEK293T cells co-expressing SmBiT-beta-arrestin2 preincubated with compound for 10 mins followed by CXCL12 stimulation and measured for 120 mins by beta-arrestin2 recruitment based NanoBiT assay; format: functional, cell-based
[12] = Stability in human plasma assessed as half life measured upto 120 mins by mass spectrometry method; format: ADME, cell-free
[13] = molecular target: T1, C-X-C chemokine receptor type 4; test: Displacement of 12G5 antibody from CXCR4 in human SUP-T1 cells as fold increase in apparent IC50 in presence of human plasma media incubated for 8 hrs by flow cytometry based competitive analysis; format: cell-based; conditions: filed as antagonist

| SMILES | pIC50 [1] | pIC50 [2] | pIC50 [3] | inhibition [4] | other results |
| --- | --- | --- | --- | --- | --- |
| CSCC[C@H](NC(=O)[C@H](N)Cc1ccccc1)C(=O)N[C@@H](CCCNC(=N)N)C(=O)N[C@@H](Cc1c[nH]c2ccccc12)C(=O)N[C@@H](CO)C(=O)N[C@@H](CCCNC(=N)N)C(=O)N[C@@H](CCCCN)C(=O)N[C@@H](CCSC)C(=O)N1CCC[C@H]1C(=O)N[C@@H](CS)C(=O)N[C@H](C(=O)N[C@@H](CO)C(=O)O)C(C)C | 5.83 | 5.77 | < 4.00 | Dose-Dependent Effect |  |
| CSCC[C@H](NC(=O)[C@H](N)CC(C)C)C(=O)N[C@@H](CCCNC(=N)N)C(=O)N[C@@H](Cc1c[nH]c2ccccc12)C(=O)N[C@@H](CO)C(=O)N[C@@H](CCCNC(=N)N)C(=O)N[C@@H](CCCCN)C(=O)N[C@@H](CCSC)C(=O)N1CCC[C@H]1C(=O)N[C@@H](CS)C(=O)N[C@H](C(=O)N[C@@H](CO)C(=O)O)C(C)C (H-[dL]MRWSRKMPCVS-OH) |  |  |  | Dose-Dependent Effect | Activity [5]: Non-Toxic |
| CC[C@H](C)[C@H](N)C(=O)N[C@@H](CC(C)C)C(=O)N[C@@H](CCCNC(=N)N)C(=O)N[C@@H](Cc1c[nH]c2ccccc12)C(=O)N[C@@H](CO)C(=O)N[C@@H](CCCNC(=N)N)C(=O)N[C@@H](CCCCN)C(=O)N[C@@H](CC(C)C)C(=O)N1CCC[C@H]1C(=O)N[C@@H](CS)C(=O)N[C@H](C(=O)N[C@@H](CO)C(=O)O)C(C)C |  |  |  |  | pIC50 [6]: 6.32; pIC50 [7]: 5.80; fold change (FC) [8]: 1; Activity [9]: 100%; Stability [10]: Unstable |
| CC[C@@H](C)[C@@H](NC(C)=O)C(=O)N[C@@H](CC(C)C)C(=O)N[C@@H](CCCNC(=N)N)C(=O)N[C@@H](Cc1c[nH]c2ccccc12)C(=O)N[C@@H](CO)C(=O)N[C@@H](CCCNC(=N)N)C(=O)N[C@@H](CCCCN)C(=O)N[C@@H](CC(C)C)C(=O)N1CCC[C@H]1C(=O)N[C@@H](CS)C(=O)N[C@H](C(=O)N[C@@H](CO)C(=O)O)C(C)C | 5.11 | < 5.00 | 4.77 |  |  |
| CC[C@H](C)[C@H](NC(C)=O)C(=O)N[C@@H](CC(C)C)C(=O)N[C@@H](CCCNC(=N)N)C(=O)N[C@@H](Cc1c[nH]c2ccccc12)C(=O)N[C@@H](CO)C(=O)N[C@@H](CCCNC(=N)N)C(=O)N[C@@H](CCCCN)C(=O)N[C@@H](CC(C)C)C(=O)N1CCC[C@H]1C(=O)N[C@@H](CS)C(=O)N[C@H](C(=O)N[C@@H](CO)C(=O)O)C(C)C | 5.58 | 5.78 | 4.38 |  |  |
| CSCC[C@H](NC(=O)[C@H](CCCCN)NC(=O)[C@H](CCCNC(=N)N)NC(=O)[C@H](CO)NC(=O)[C@H](Cc1c[nH]c2ccccc12)NC(=O)[C@H](CCCNC(=N)N)NC(=O)[C@H](CC(C)C)NC(=O)[C@@H](CO)NC(C)=O)C(=O)N1CCC[C@H]1C(=O)N[C@@H](CS)C(=O)N[C@H](C(=O)N[C@@H](CO)C(=O)O)C(C)C | 5.06 | 6.11 | < 4.00 |  |  |
| CSCC[C@H](NC(=O)[C@H](CCCCN)NC(=O)[C@H](CCCNC(=N)N)NC(=O)[C@H](CO)NC(=O)[C@H](Cc1c[nH]c2ccccc12)NC(=O)[C@H](CCCNC(=N)N)NC(=O)[C@H](CC(C)C)NC(=O)[C@H](N)CC(C)C)C(=O)N1CCC[C@H]1C(=O)N[C@@H](CS)C(=O)N[C@H](C(=O)N[C@@H](CO)C(=O)O)C(C)C (H-[dL]LRWSRKMPCVS-OH) | 6.51 | 6.82 | 5.44 | Dose-Dependent Effect | pIC50 [11]: 6.59; Activity [5]: Non-Toxic |
| CC[C@@H](C)[C@@H](N)C(=O)N[C@@H](CC(C)C)C(=O)N[C@@H](CCCNC(=N)N)C(=O)N[C@@H](Cc1c[nH]c2ccccc12)C(=O)N[C@@H](CO)C(=O)N[C@@H](CCCNC(=N)N)C(=O)N[C@@H](CCCCN)C(N)=O (H-[dI]LRWSRK-NH2) | 6.58 | 5.70 | 5.17 | Dose-Dependent Effect | pIC50 [11]: 7.04; fold change (FC) [8]: 1; fold change (FC) [13]: 1.1; Activity [9]: 100%; Stability [10]: Stable; Activity [5]: Non-Toxic |

Continued by rising pIC50 [2], values first:

| pIC50 [1] | pIC50 [2] | pIC50 [3] | SMILES | inhibition [4] | other results |
| --- | --- | --- | --- | --- | --- |
| 6.46 | 6.25 | 5.09 | CC[C@H](C)[C@H](N)C(=O)N[C@H](C(=O)N[C@@H](CCCNC(=N)N)C(=O)N[C@@H](Cc1c[nH]c2ccccc12)C(=O)N[C@@H](CO)C(=O)N[C@@H](CCCCN)C(=O)N[C@@H](CCCCN)C(=O)N[C@H](C(=O)N1CCC[C@H]1C(=O)N[C@@H](CS)C(=O)N[C@H](C(=O)N[C@@H](CO)C(=O)O)C(C)C)C(C)C)C(C)C (H-IVRWSKKVPCVS-OH) |  | half-life [12]: 5.2 min |
| 6.34 | 6.26 | 5.34 | CC[C@@H](C)[C@@H](N)C(=O)N[C@@H](CC(C)C)C(=O)N[C@@H](CCCNC(=N)N)C(=O)N[C@@H](Cc1c[nH]c2ccccc12)C(=O)N[C@@H](CO)C(=O)N[C@@H](CCCNC(=N)N)C(=O)N[C@@H](CCCCN)C(=O)N[C@@H](CC(C)C)C(=O)N1CCC[C@H]1C(N)=O (H-[dI]LRWSRKLP-NH2) | Dose-Dependent Effect | pIC50 [11]: 6.93; Activity [5]: Non-Toxic |
| 5.76 | 6.36 | < 4.00 | CC[C@H](C)[C@H](N)C(=O)N[C@H](CC(C)C)C(=O)N[C@@H](CCCNC(=N)N)C(=O)N[C@@H](Cc1c[nH]c2ccccc12)C(=O)N[C@@H](CO)C(=O)N[C@@H](CCCNC(=N)N)C(=O)N[C@@H](CCCCN)C(=O)N[C@@H](CC(C)C)C(=O)N1CCC[C@H]1C(=O)N[C@@H](CS)C(=O)N[C@H](C(=O)N[C@@H](CO)C(=O)O)C(C)C |  |  |
| 6.53 | 6.67 | 5.36 | CC(C)C[C@H](NC(=O)[C@@H](N)C(C)C)C(=O)N[C@@H](CCCNC(=N)N)C(=O)N[C@@H](Cc1c[nH]c2ccccc12)C(=O)N[C@@H](CO)C(=O)N[C@@H](CCCNC(=N)N)C(=O)N[C@@H](CCCCN)C(=O)N[C@@H](CC(C)C)C(=O)N1CCC[C@H]1C(=O)N[C@@H](CS)C(=O)N[C@H](C(=O)N[C@@H](CO)C(=O)O)C(C)C |  |  |
| 6.98 | 6.89 | 5.14 | CSCC[C@H](NC(=O)[C@@H](N)CCSC)C(=O)N[C@@H](CCCNC(=N)N)C(=O)N[C@@H](Cc1c[nH]c2ccccc12)C(=O)N[C@@H](CO)C(=O)N[C@@H](CCCNC(=N)N)C(=O)N[C@@H](CCCCN)C(=O)N[C@@H](CCSC)C(=O)N1CCC[C@H]1C(=O)N[C@@H](CS)C(=O)N[C@H](C(=O)N[C@@H](CO)C(=O)O)C(C)C (H-MMRWSRKMPCVS-OH) |  |  |
|  | 7.52 |  | c1cc(CN2CCCNCCNCCCNCC2)ccc1CN1CCCNCCNCCCNCC1 | Dose-Dependent Effect |  |
